In ChEMBL document CHEMBL1146664, “Cytochrome P450/NADPH-dependent formation of trans epoxides from trans-arachidonic acids” (Bioorg Med Chem Lett, 2004):

Assay: Level reaching in blood plasma of rat or human was determined
Type: ADME, cell-free

Row | SMILES | Activity
1 | CCCCC/C=C/CC1OC1C/C=C\C/C=C\CCCC(=O)O (stereo not given) | 0.5 µM
2 | CCCCCC(O)C(O)C/C=C\C/C=C\C/C=C\CCCC(=O)O (stereo not given) | 0.5 µM
3 | CCCCC/C=C/C/C=C\C/C=C\C/C=C\CCCC(=O)O | 0.5 µM
4 | CCCCCC1OC1C/C=C\C/C=C\C/C=C\CCCC(=O)O (trans isomer) | 0.5 µM
5 | CCCCC/C=C/CC(O)C(O)C/C=C\C/C=C\CCCC(=O)O (trans isomer) | 0.5 µM
